The source of these data is PubChem BioAssay AID806 (SRMLSC, 2007).

The test system of this assay is virus-infected cells, CPE inhibition, dose response. As to the kind of experiment: PubChem AID 806. Particulars: for EC90: measured here: EC90 CPE inhibition; for CC50: measured here: cytotoxicity, cell viability IC50.

Molecules are shown by their SMILES. The source made the active and inactive calls. How the calls were made is not given here.

With `Cc1cc(NC(=O)CSc2nnc(CNc3ccc(F)cc3)n2C2CCCCC2)no1`, the EC50 – broadly, the midpoint of the concentration-response curve – is 61.8 µM (inactive); the EC90 (commonly the point of the concentration-response curve where the effect stands at 90%) was > 60 µM; the CC50 (usually the concentration at which the toxic effect on the cells reaches its halfway point) is > 60 µM.

As for `COc1ccc(C(=O)C(CN2CCOCC2)c2ccccc2)cc1F` (stereo unspecified), the EC50 is > 60 µM (inactive), the EC90 was > 60 µM and the CC50 was > 60 µM.

Turning to `O=C1CC(C(=O)Nc2ccccc2)C2(CCCC2)O1` (stereo unspecified), the EC50 was > 60 µM (inactive), the EC90 is > 60 µM and the CC50 was > 60 µM.

`Cc1ccc(CNC(=O)CCS(=O)(=O)c2cccc3nsnc23)cc1`: the EC50 was > 60 µM (inactive), the EC90 is > 60 µM and the CC50 is > 60 µM.

As to `COCCNC(=O)C(c1ccccc1C)N(CCOC)C(=O)Cn1nnc2ccccc21` (stereo unspecified), the EC50 is > 60 µM (inactive), the EC90 was > 60 µM and the CC50 was > 60 µM.

Consider `CC(C)(C)OC(=O)NCCc1nnc(SCc2ccc(Cl)cc2)o1`, for which the EC50 was > 60 µM (inactive), the EC90 is > 60 µM and the CC50 is > 60 µM.

As to `O=C(CCS(=O)(=O)c1cccc2nsnc12)NCc1ccccc1`, the EC50 is > 60 µM (inactive), the EC90 was > 60 µM and the CC50 is > 60 µM.

For `O=C(Nc1cccnc1)c1cc2c(ccc3ccccc32)o1`, the EC50 was > 60 µM (inactive), the EC90 was > 60 µM and the CC50 was > 60 µM.

As for `Cn1nc([N+](=O)[O-])nc1Sc1nnc(-c2ccccc2)o1`, the EC50 is > 60 µM (inactive), the EC90 was > 60 µM and the CC50 is > 60 µM.

For `O=C(CCS(=O)(=O)c1cccc2nsnc12)NCc1ccccc1Cl`, the EC50 was > 60 µM (inactive), the EC90 is > 60 µM and the CC50 was > 60 µM.

Take `CCc1c(C)nc2[nH]nc(-c3ccccc3C)n2c1=O`: the EC50 is > 60 µM (inactive), the EC90 was > 60 µM and the CC50 is > 60 µM.

Regarding `COc1cccc(C(=O)Nc2ccc(-c3nnc(-c4ccco4)o3)cc2)c1`, the EC50 is > 60 µM (inactive), the EC90 was > 60 µM and the CC50 is > 60 µM.

As to `CCCN(CCC)C(=O)CCS(=O)(=O)c1cccc2nsnc12`, the EC50 was > 60 µM (inactive), the EC90 was > 60 µM and the CC50 was > 60 µM.

For `COc1ccc(C2NC(=O)NC3=C2CCc2ccccc23)cc1` (stereo unspecified), the EC50 is 3.6 µM, the EC90 is > 60 µM and the CC50 was > 60 µM.

Turning to `CC(C)c1ccc(C2NC(=O)NC3=C2CCc2ccccc23)cc1` (stereo unspecified), the EC50 was > 60 µM (inactive), the EC90 is > 60 µM and the CC50 was > 60 µM.

On to `CC1CCCN(c2ccc(C(=O)NCc3cccs3)cn2)C1` (stereo unspecified), for which the EC50 is > 60 µM (inactive), the EC90 was > 60 µM and the CC50 was > 60 µM.

On to `O=C(NCc1cccnc1)C1CCCCN1S(=O)(=O)c1ccc(F)cc1` (stereo unspecified), for which the EC50 was > 60 µM (inactive), the 90% effect concentration (EC90) is > 60 µM and the half-maximal cytotoxic concentration (CC50) was > 60 µM.

As for `CC1Cc2ccccc2N1C(=O)C1CCCCN1S(=O)(=O)c1ccccc1` (stereo unspecified), the EC50 is > 60 µM (inactive), the EC90 is > 60 µM and the CC50 was > 60 µM.

With `COc1ccc(NC(=O)c2cc3ccccc3o2)cc1`, the EC50 is > 60 µM (inactive), the EC90 is > 60 µM and the half-maximal cytotoxic concentration (CC50) is > 60 µM.

On to `O=C(c1cc(-c2ccc(Cl)cc2)n(-c2ccc(Cl)cc2)n1)N1CCOCC1`, for which the EC50 is > 60 µM (inactive), the EC90 was > 60 µM and the CC50 came to 4.34 µM.

Consider `O=C(Cn1cnc2ccccc2c1=O)N(Cc1ccco1)c1ccc(O)cc1`, for which the EC50 is > 60 µM (inactive), the EC90 was > 60 µM and the CC50 is > 60 µM.

In the case of `COc1ccccc1CNC(=O)c1ccc(S(=O)(=O)N(C)C)cc1`, the EC50 was > 60 µM (inactive), the EC90 was > 60 µM and the CC50 is > 60 µM.

As for `O=C(c1cnn2c(C(F)(F)F)cc(-c3ccc(Br)cc3)nc12)N1CCOCC1`, the EC50 is > 60 µM (inactive), the EC90 was > 60 µM and the CC50 was > 60 µM.

As to `Clc1ccc(Nc2ncnc3c2cnn3-c2ccccc2)cc1`, the EC50 is > 60 µM (inactive), the EC90 is > 60 µM and the CC50 is > 60 µM.

Regarding `COc1ccc(NC(=O)C2CC(=O)OC23CCCCC3)cc1` (stereo unspecified), the EC50 was > 60 µM (inactive), the EC90 was > 60 µM and the CC50 is > 60 µM.

Regarding `O=C(Nc1cccc(O)c1)c1noc2c1CCc1ccccc1-2`, the EC50 is > 60 µM (inactive), the EC90 is > 60 µM and the CC50 is > 60 µM.

Consider `CCc1c(C)nc2[nH]nc(-c3ccccc3)n2c1=O`, for which the EC50 is > 60 µM (inactive), the EC90 is > 60 µM and the CC50 is > 60 µM.

As to `Cc1cc(=O)n2c(-c3ccccc3C)n[nH]c2n1`, the EC50 was > 60 µM (inactive), the EC90 is > 60 µM and the CC50 was > 60 µM.

With `COc1ccc(OC)c(-n2c(SCC(=O)Nc3cc(C)on3)nnc2-c2c[nH]c3ccccc23)c1`, the EC50 was > 60 µM (inactive), the EC90 is > 60 µM and the CC50 was > 60 µM.

As for `O=C(Cc1ccccc1)Nc1ccc(-c2nnc(-c3ccco3)o2)cc1`, the EC50 is > 60 µM (inactive), the EC90 was > 60 µM and the CC50 is > 60 µM.

As to `CN1C(=O)Cn2c1nc1ccccc12`, the EC50 was > 60 µM (inactive), the EC90 is > 60 µM and the CC50 was > 60 µM.

As for `CC1Cc2ccccc2N1C(=O)CSc1nnc2sc3ccccc3n12` (stereo unspecified), the EC50 is > 60 µM (inactive), the EC90 is > 60 µM and the CC50 worked out at 10.1 µM.

Regarding `COc1ccc(S(=O)(=O)Nc2ccc(F)cc2)cc1N(C)S(=O)(=O)c1ccc(Cl)cc1`, the EC50 is > 60 µM (inactive), the EC90 was > 60 µM and the CC50 was > 60 µM.

Turning to `COc1ccc2c(c1)CCc1c(C(=O)N3CCCC3)noc1-2`, the EC50 was > 60 µM (inactive), the EC90 was > 60 µM and the CC50 is > 60 µM.

As to `CC1CCN(c2ccc(C(=O)NCc3cccs3)cn2)CC1`, the EC50 was > 60 µM (inactive), the EC90 was > 60 µM and the CC50 is > 60 µM.

For the compound `O=C(CN1CCN(c2ncccn2)CC1)NCCC1=CCCCC1`, the EC90 is > 60 µM and the CC50 is > 60 µM.

As to `O=C(NCc1cccs1)c1ccc(N2CCCCC2)nc1`, the EC50 is > 60 µM (inactive), the EC90 was > 60 µM and the CC50 is > 60 µM.

With `CCCCCn1c(=O)c(C(=O)Nc2c(C)n(C)n(-c3ccccc3)c2=O)c(O)c2ccccc21`, the EC50 was > 60 µM (inactive), the EC90 is > 60 µM and the CC50 was > 60 µM.

For `Cc1c(C(=O)Nc2ccncc2)oc2ccccc12`, the EC50 was > 60 µM (inactive), the EC90 was > 60 µM and the CC50 is > 60 µM.

As for `O=C1c2ccccc2-c2onc3ccc(Oc4ccccc4)c1c23`, the EC50 was > 60 µM (inactive), the EC90 was > 60 µM and the 50% cytotoxic concentration (CC50) is 17.7 µM.

Turning to `CCOc1ccc(NC(=O)C2CCCCN2S(=O)(=O)c2ccccc2)cc1` (stereo unspecified), the EC50 is > 60 µM (inactive), the EC90 was > 60 µM and the CC50 is > 60 µM.

On to `CCOC(=O)/C=c1\s/c(=C\c2ccccc2OC)c(=O)n1CC(=O)N1CCOCC1`, for which the EC50 was > 60 µM (inactive), the EC90 was > 60 µM and the CC50 is > 60 µM.

For `C#CCSc1nnc(-c2ccc(OC)cc2)o1`, the EC50 is > 60 µM (inactive), the EC90 is > 60 µM and the CC50 is > 60 µM.

Turning to `O=C(c1cccs1)N1CCn2c1nc1ccccc12`, the EC50 is > 60 µM (inactive), the EC90 was > 60 µM and the cytotoxic concentration (CC50) is > 60 µM.

As to `O=Nc1c(O)n(Cc2ccc(Cl)cc2)c2ccccc12`, the EC50 is > 60 µM (inactive), the EC90 was > 60 µM and the CC50 was > 60 µM.

As for `COc1ccc(-c2nnc3ccc(SCC(=O)NCc4ccco4)nn23)cc1OC`, the EC50 was > 60 µM (inactive), the EC90 is > 60 µM and the CC50 was > 60 µM.

Consider `CN1c2ccsc2C(O)=C(C(=O)Nc2ccccc2)S1(=O)=O`, for which the EC50 is > 60 µM (inactive), the EC90 is > 60 µM and the CC50 is > 60 µM.

`CCOC(=O)/C=C1\SCC(=O)N1CC(=O)NC12CC3CC(CC(C3)C1)C2`: the EC50 was > 60 µM (inactive), the EC90 is > 60 µM and the CC50 was > 60 µM.

Take `O=C(Nc1ccccn1)c1cc2ccccc2o1`: the EC50 is > 60 µM (inactive), the EC90 is > 60 µM and the CC50 turned out to be 23.9 µM.

For the compound `COCc1cc(=O)n2c(-c3ccccc3OC)n[nH]c2n1`, the EC50 is > 60 µM (inactive), the EC90 was > 60 µM and the CC50 is > 60 µM.

Turning to `COc1ccccc1Cn1c(=O)c2ccccc2n2c(SCC(=O)N3CCCCC3)nnc12`, the EC50 was > 60 µM (inactive), the EC90 was > 60 µM and the CC50 is > 60 µM.

For the compound `O=c1[nH]c2ccccc2n1Cc1ccc(Cl)cc1`, the EC50 is > 60 µM (inactive), the EC90 was > 60 µM and the CC50 is > 60 µM.

Regarding `COc1ccc(OC)c(-n2c(SCC(N)=O)nnc2-c2c[nH]c3ccccc23)c1`, the EC50 is > 60 µM (inactive), the 90% effect concentration (EC90) was > 60 µM and the CC50 was > 60 µM.

Take `Clc1cccc(Nc2ncnc3c2cnn3-c2ccccc2)c1`: the EC50 is > 60 µM (inactive), the EC90 was > 60 µM and the CC50 was > 60 µM.
